The text below walks through data of US11566007B2, “Ras inhibitors” (Revolution Medicines, Inc., priority 2019, dated 2023).

Experiment [1] deals with KRAS G12D (Homo sapiens (Human), UniProt P01116+P62937, G12D). Kind of experiment: Ras-Raf (BRAF RBD) disruption / FRET / MOA assay, KRAS G12D. It is filed as biochemical. As to conditions: Ras-Raf disruption/FRET/MOA assay; class symbols; read-out: KRAS G12D FRET data IC50. The method, boiled down: (§1)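 Compounds, top final concentration 30 μM in 10-point 3-fold series, incubated 3 hours at 25° C with nucleotide-loaded Ras, cyclophilin A and BRAF RBD.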

In experiment [2] the target is K-Ras G13C (Homo sapiens (Human), UniProt P01116+P62937, G13C). Put plainly: Ras-Raf (BRAF RBD) disruption / FRET / MOA assay, KRAS G13C. The class given is biochemical. Conditions: KRAS G13C; Ras-Raf disruption/FRET/MOA assay; read-out: IC50* KRAS G13C FRET data. The method, boiled down:
as §1

Experiment [3] deals with NCI-H358 (K-Ras G12C). Kind of experiment: CellTiter-Glo cell viability assay, NCI-H358. It is filed as cell-based, human. Conditions: NCI-H358, 5-day treatment, class symbols, read-out: Additional H358 Cell Viability assay data (K-Ras G12C, IC50). The method, boiled down:
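Compounds were dispensed directly onto K-Ras mutant cells and incubated until day 5, then plates were equilibrated to room temperature for about 30 minutes before CellTiter-Glo luminescence. Signals were normalized as (sample/average DMSO)*100 and fitted by four-parameter logistic fit.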
On the technique in general: In ATP-based viability assays light output follows the ATP content of the culture.

Experiment [4] addresses NRAS G12C (Homo sapiens (Human), UniProt P01111+P62937, G12C). Put plainly: Ras-Raf (BRAF RBD) disruption / FRET / MOA assay, NRAS G12C. As to conditions: read-out: IC50* NRAS G12C FRET data. It is filed as biochemical. In a few lines:
as §1

For experiment [5], the target named is KRAS G12S (Homo sapiens (Human), UniProt P01116+P62937, G12S). Kind of experiment: Ras-Raf (BRAF RBD) disruption / FRET / MOA assay, KRAS G12S. Conditions: Ras-Raf disruption/FRET/MOA assay; class symbols; read-out: KRAS G12S FRET data IC50. It is filed as biochemical. The method, boiled down:
as §1

Experiment [6] addresses KRAS G12V (Homo sapiens (Human), UniProt P01116+P62937, G12V). Put plainly: Ras-Raf (BRAF RBD) disruption / FRET / MOA assay, KRAS G12V. The class given is biochemical. Conditions: read-out: IC50* KRAS G12V FRET data. The method, boiled down: as §1
The target in experiment [7] is K-Ras G12C (Homo sapiens (Human), UniProt P01116+P62937, G12C). Kind of experiment: Ras-Raf (BRAF RBD) disruption / FRET / MOA assay, KRAS G12C. The class given is biochemical. As to conditions: KRAS G12C; Ras-Raf disruption/FRET/MOA assay; read-out: IC50* KRAS G12C FRET data. The method, boiled down:
as §1

Experiment [8] concerns the target KRAS G13D (Homo sapiens (Human), UniProt P01116+P62937, G13D). Put plainly: Ras-Raf (BRAF RBD) disruption / FRET / MOA assay, KRAS G13D. The class given is biochemical. As to conditions: read-out: IC50* KRAS G13D FRET data. In a few lines:
as §1

In experiment [9] the target is KRAS WT (Homo sapiens (Human), UniProt P01116+P62937). Kind of experiment: Ras-Raf (BRAF RBD) disruption / FRET / MOA assay, KRAS WT. It is filed as biochemical. Conditions: read-out: IC50* KRAS WT FRET data. The method, boiled down:
as §1

Where two headings read alike, the source gives them in different places.

Sequence of KRAS G12V (P01116-2 other isoform, or with tags, fused parts or gaps G12V): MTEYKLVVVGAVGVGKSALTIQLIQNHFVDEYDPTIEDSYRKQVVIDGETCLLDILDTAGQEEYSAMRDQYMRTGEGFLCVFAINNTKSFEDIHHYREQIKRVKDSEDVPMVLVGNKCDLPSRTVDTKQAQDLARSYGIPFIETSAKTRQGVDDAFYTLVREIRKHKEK
Sequence of KRAS G12V (P62937 whole entry): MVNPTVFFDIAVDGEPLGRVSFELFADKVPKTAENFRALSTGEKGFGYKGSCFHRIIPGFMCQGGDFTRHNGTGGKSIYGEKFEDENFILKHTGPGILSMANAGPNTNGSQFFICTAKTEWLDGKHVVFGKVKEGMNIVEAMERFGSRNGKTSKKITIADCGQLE
Sequence of KRAS G12D (P01116-2 other isoform, or with tags, fused parts or gaps G12D): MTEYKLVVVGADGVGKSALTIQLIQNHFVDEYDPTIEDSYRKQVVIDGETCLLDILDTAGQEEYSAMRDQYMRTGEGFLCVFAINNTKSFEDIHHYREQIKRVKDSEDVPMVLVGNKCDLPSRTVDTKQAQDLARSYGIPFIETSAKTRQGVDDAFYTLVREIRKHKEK
Sequence of KRAS G12D (P62937 whole entry): as the sequence (P62937 whole entry) above
Sequence of KRAS WT (P01116-2 other isoform, or with tags, fused parts or gaps): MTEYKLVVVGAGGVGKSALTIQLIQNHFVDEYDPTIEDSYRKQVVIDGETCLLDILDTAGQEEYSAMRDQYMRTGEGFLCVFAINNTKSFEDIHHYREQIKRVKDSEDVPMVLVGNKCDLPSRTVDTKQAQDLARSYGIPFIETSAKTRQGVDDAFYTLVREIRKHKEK
Sequence of KRAS WT (P62937 whole entry): as the sequence (P62937 whole entry) above
Sequence of KRAS G13D (P01116-2 other isoform, or with tags, fused parts or gaps G13D): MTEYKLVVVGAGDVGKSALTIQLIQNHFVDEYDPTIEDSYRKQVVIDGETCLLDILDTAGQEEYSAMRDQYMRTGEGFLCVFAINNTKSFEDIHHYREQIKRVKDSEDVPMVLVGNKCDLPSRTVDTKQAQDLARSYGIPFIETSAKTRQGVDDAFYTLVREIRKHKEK
Sequence of KRAS G13D (P62937 whole entry): as the sequence (P62937 whole entry) above
Sequence of K-Ras G13C (P01116-2 other isoform, or with tags, fused parts or gaps G13C): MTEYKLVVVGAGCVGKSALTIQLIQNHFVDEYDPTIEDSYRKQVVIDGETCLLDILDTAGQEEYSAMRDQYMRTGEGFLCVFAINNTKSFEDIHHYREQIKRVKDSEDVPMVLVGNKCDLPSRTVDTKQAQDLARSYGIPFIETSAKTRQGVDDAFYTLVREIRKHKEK
Sequence of K-Ras G13C (P62937 whole entry): as the sequence (P62937 whole entry) above
Sequence of KRAS G12S (P01116-2 other isoform, or with tags, fused parts or gaps G12S): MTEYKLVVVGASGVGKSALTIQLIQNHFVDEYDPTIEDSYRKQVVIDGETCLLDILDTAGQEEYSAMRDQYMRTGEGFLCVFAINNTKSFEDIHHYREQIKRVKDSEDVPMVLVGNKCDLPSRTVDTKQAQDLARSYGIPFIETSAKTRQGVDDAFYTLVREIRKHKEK
Sequence of KRAS G12S (P62937 whole entry): as the sequence (P62937 whole entry) above
Sequence of K-Ras G12C (P01116-2 other isoform, or with tags, fused parts or gaps G12C): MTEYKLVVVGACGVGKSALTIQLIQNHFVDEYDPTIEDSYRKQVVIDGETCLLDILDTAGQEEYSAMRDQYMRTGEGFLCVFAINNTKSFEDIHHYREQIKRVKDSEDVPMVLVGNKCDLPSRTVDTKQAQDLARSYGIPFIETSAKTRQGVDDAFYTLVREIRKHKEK
Sequence of K-Ras G12C (P62937 whole entry): as the sequence (P62937 whole entry) above
Sequence of NRAS G12C (P01111 whole entry G12C): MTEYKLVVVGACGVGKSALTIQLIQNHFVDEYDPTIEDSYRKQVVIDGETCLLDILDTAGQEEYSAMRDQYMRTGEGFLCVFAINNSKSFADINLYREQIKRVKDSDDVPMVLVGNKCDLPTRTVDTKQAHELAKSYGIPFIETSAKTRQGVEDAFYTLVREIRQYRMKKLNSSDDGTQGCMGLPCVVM
Sequence of NRAS G12C (P62937 whole entry): as the sequence (P62937 whole entry) above

As to `C=CC(=O)N1CC[C@H](C(=O)N(C)[C@H](C(=O)N[C@H]2Cc3cccc(c3)-c3ccc4c(c3)c(c(-c3cnccc3[C@H](C)OC)n4CC)CC(C)(C)COC(=O)[C@@H]3CCCN(N3)C2=O)C(C)C)C1` [Example A122], the IC50 (in general, the concentration that gives 50% inhibition) in experiment [1] was over 10 µM; in experiment [2], over 10 µM; in experiment [3] (Homo sapiens, NCI-H358, 120 h), over 1 µM; in [4] it was over 10 µM; in [5], over 10 µM; in experiment [6], over 10 µM. In addition, the IC50 in experiment [7], in experiment [8] and in [9] was over 10 µM throughout.
For the molecule `C=CC(=O)N1CC[C@H](C(=O)N(C)[C@H](C(=O)N[C@H]2Cc3cc(O)cc(c3)-c3ccc4c(c3)c(c(-c3cccnc3CNC)n4CC)CC(C)(C)COC(=O)[C@@H]3CCCN(N3)C2=O)C(C)C)C1` [Example A137], the IC50 in experiment [1] was over 10 µM; in experiment [2], over 10 µM; in experiment [3] (Homo sapiens, NCI-H358, 120 h), over 1 µM; in [4] it was 0.1 to 1 µM; in experiment [5] it was 1 to 10 µM; in experiment [6] it was 1 to 10 µM. Also, the IC50 is 0.1 to 1 µM in experiment [7], over 10 µM in experiment [8] and 1 to 10 µM in [9].
As for `CCn1c(-c2cccnc2COC)c2c3cc(ccc31)-c1cc(O)cc(c1)C[C@H](NC(=O)[C@H](C(C)C)N(C)C(=O)[C@H]1CCC(C(=O)/C=C\CN(C)C)C1)C(=O)N1CCC[C@H](N1)C(=O)OCC(C)(C)C2` (stereo partly drawn) [Example A161], the IC50 in experiment [1] was over 10 µM; in [2], 1 to 10 µM; in experiment [3], over 1 µM; in experiment [4] it was 0.1 to 1 µM; in experiment [5], 1 to 10 µM; in experiment [6] it was 1 to 10 µM. Besides, the IC50 fell in the range of 0.1 to 1 µM in [7], 1 to 10 µM in experiment [8] and 1 to 10 µM in experiment [9].
In the case of `COCc1ncccc1-c1nc2ccc3cc2n1CC(C)(C)COC(=O)[C@@H]1CCCN(N1)C(=O)[C@@H](NC(=O)[C@H](C(C)C)N(C)C(=O)[C@H]1CCN(C(=O)C#CCN2CCOCC2)C1)Cc1cc(O)cc-3c1` [Example A188], the IC50 in [1] was over 10 µM; in [2], over 10 µM; in experiment [3] (Homo sapiens, NCI-H358, 120 h), over 1 µM; in experiment [4], 0.1 to 1 µM; in experiment [5], over 10 µM; in experiment [6] it was over 10 µM. For the same molecule, the IC50 in experiment [7] is 0.1 to 1 µM; in experiment [8] it was over 10 µM; in experiment [9], over 10 µM.
For the molecule `C=CC(=O)N1CC[C@H](C(=O)Nc2ccccc2C(=O)N[C@H]2Cc3cc(O)cc(c3)-c3ccc4c(c3)c(c(-c3cnccc3COC)n4CC)CC(C)(C)COC(=O)[C@@H]3CCCN(N3)C2=O)C1` [Example A229], the IC50 in [1] is over 10 µM; in [2], over 10 µM; in [3] (Homo sapiens, NCI-H358, 120 h) it was over 1 µM; in experiment [4], 1 to 10 µM; in experiment [5] it was over 10 µM; in experiment [6], over 10 µM. The figures for the IC50 in experiment [7], in [8] and in [9] were 0.1 to 1 µM, over 10 µM and over 10 µM, respectively.
On to `C=CC(=O)N1CC[C@H](C(=O)N(C)[C@H](C(=O)N(C)[C@H]2Cc3cc(O)cc(c3)-c3ccc4c(c3)c(c(-c3cccnc3COC)n4CC)CC(C)(C)COC(=O)[C@@H]3CCCN(N3)C2=O)C(C)C)C1` [Example A230], for which the IC50 in experiment [1] is over 10 µM; in [2] it was over 10 µM; in [3] (Homo sapiens, NCI-H358, 120 h), over 1 µM; in experiment [4], over 10 µM; in [5], over 10 µM; in [6], over 10 µM. Moreover, the IC50 in experiment [7], in experiment [8] and in experiment [9] was over 10 µM throughout.
As to `C=CC(=O)N1CC[C@H](C(=O)N(C)[C@H](C(=O)N[C@H]2Cc3cc(OC4O[C@H](CO)[C@@H](O)[C@H](O)[C@H]4O)cc(c3)-c3ccc4c(c3)c(c(-c3cccnc3COC)n4CC)CC(C)(C)COC(=O)[C@@H]3CCCN(N3)C2=O)C(C)C)C1` (stereo partly drawn) [Example A234], the IC50 in experiment [1] is over 10 µM; in experiment [2], over 10 µM; in [3] (Homo sapiens, NCI-H358, 120 h), over 1 µM; in experiment [4], over 10 µM; in experiment [5], over 10 µM; in experiment [6] it was over 10 µM. Besides, the IC50 in [7], in experiment [8] and in [9] was over 10 µM each time.
`C=CC(=O)N1CC(O[C@H](C(=O)N[C@H]2Cc3cc(O)cc(c3)-c3ccc4c(c3)c(c(-c3cccnc3COC)n4CC)CC(C)(C)COC(=O)[C@@H]3CCCN(N3)C2=O)C(C)C)C1` [Example A235]: the IC50 in experiment [1] is over 10 µM; in experiment [2] it was 1 to 10 µM; in experiment [3] (Homo sapiens, NCI-H358, 120 h), over 1 µM; in experiment [4], 1 to 10 µM; in experiment [5] it was over 10 µM; in experiment [6], over 10 µM. Moreover, the results for the IC50 in [7], in experiment [8] and in experiment [9] were 1 to 10 µM, over 10 µM and over 10 µM, respectively.
In the case of `C=CC(=O)N1CC[C@H](C(=O)N(C)[C@H](C(=O)N[C@H]2CC3=NN=C(S3)c3ccc4c(c3)c(c(-c3cccnc3COC)n4CC)CC(C)(C)COC(=O)[C@@H]3CCCN(N3)C2=O)C(C)C)C1` [Example A236], the IC50 in [1] is over 10 µM; in [2], over 10 µM; in [3] (Homo sapiens, NCI-H358, 120 h), over 1 µM; in [4], over 10 µM; in experiment [5], over 10 µM; in [6], over 10 µM. The IC50 in experiment [7], in experiment [8] and in experiment [9] was over 10 µM each time.
In the case of `C=CC(=O)N1CC[C@H](C(=O)N(C)[C@H](C(=O)N[C@H]2CN(C)C(=O)Cc3ccc4c(c3)c(c(-c3cccnc3COC)n4CC)CC(C)(C)COC(=O)[C@@H]3CCCN(N3)C2=O)C(C)C)C1` [Example A239], the IC50 in experiment [1] is over 10 µM; in experiment [2] it was over 10 µM; in [3] (Homo sapiens, NCI-H358, 120 h) it was over 1 µM; in experiment [4], over 10 µM; in experiment [5] it was over 10 µM; in experiment [6] it was over 10 µM. Further, the IC50 in experiment [7], in [8] and in experiment [9] was over 10 µM throughout.
On to `C=CC(=O)N1CC[C@H](C(=O)N(C)[C@H](C(=O)N[C@@H]2C(=O)N3CCC[C@H](N3)C(=O)OCC(C)(C)Cc3c(-c4cncnc4)n(CC)c4ccc(cc34)-c3cccc(c3)[C@@H]2OC)C(C)C)C1` [Example A271], for which the half-inhibitory concentration (IC50) in experiment [1] is over 10 µM; in [2], over 10 µM; in experiment [3] (Homo sapiens, NCI-H358, 120 h) it was over 1 µM; in experiment [4], over 10 µM; in experiment [5], over 10 µM; in experiment [6], over 10 µM. Also, the IC50 in experiment [7], in experiment [8] and in experiment [9] was over 10 µM in each case.
For the molecule `C=CC(=O)N1CC[C@H](C(=O)N(C)[C@H](C(=O)N[C@@H]2C(=O)N3CCC[C@H](N3)C(=O)OCC(C)(C)Cc3c(-c4cncnc4)n(CC)c4ccc(cc34)-c3cccc(c3)[C@H]2OC)C(C)C)C1` [Example A273], the IC50 is over 10 µM in experiment [1]; over 10 µM in experiment [2]; over 1 µM in [3] (Homo sapiens, NCI-H358, 120 h); over 10 µM in experiment [4]; over 10 µM in [5]; over 10 µM in [6]. For the same molecule, the IC50 in experiment [7], in experiment [8] and in experiment [9] was over 10 µM each time.
As for `CC#CC(=O)N1CC[C@H](C(=O)N(C)[C@H](C(=O)N[C@H]2Cc3nc(cs3)-c3ccc4c(c3)c(c(-c3cccnc3[C@H](C)OC)n4C(C)=O)CC(C)(C)COC(=O)[C@@H]3CCCN(N3)C2=O)C(C)C)C1` [Example A293], the IC50 in experiment [1] is over 10 µM; in [2] it was over 10 µM; in experiment [3] (Homo sapiens, NCI-H358, 120 h) it was over 1 µM; in experiment [4], over 10 µM; in [5], over 10 µM; in experiment [6], over 10 µM. In addition, the IC50 in [7], in experiment [8] and in experiment [9] was over 10 µM in each case.
`CO[C@@H](C)c1ncccc1-c1nc2ccc3cn2c1CC(C)(C)COC(=O)[C@@H]1CCCN(N1)C(=O)[C@@H](NC(=O)[C@H](C(C)C)N(C)C(=O)[C@H]1CCN(C(=O)C#CC(C)(C)N(C)C)C1)Cc1cccc-3c1` [Example A311]: the IC50 in experiment [1] was over 10 µM; in experiment [2] it was over 10 µM; in [3] (Homo sapiens, NCI-H358, 120 h), over 1 µM; in experiment [4], over 10 µM; in experiment [5], over 10 µM; in [6], over 10 µM. Besides, the 50% inhibitory concentration (IC50) in experiment [7], in [8] and in [9] was over 10 µM each time.
